Reference: ChEMBL document CHEMBL1909046, “DrugMatrix in vitro pharmacology data”

Legend:
[1] = DRUGMATRIX: Glutamate, NMDA, Phencyclidine radioligand binding (ligand: [3H] TCP); assay type: cell membranes, Rattus norvegicus, Wistar, Cerebral cortex, Membrane; conditions: Not Active = under 50% inhibition at 10 µM
[2] = target: T1, Cysteinyl leukotriene receptor 1 (Homo sapiens, UniProt Q9Y271); assay type: cell membranes, Membrane; conditions: cho-k1; note: in other assays of this panel Not Active means under 50% inhibition at 10 µM
T1 sequence (Q9Y271 whole entry): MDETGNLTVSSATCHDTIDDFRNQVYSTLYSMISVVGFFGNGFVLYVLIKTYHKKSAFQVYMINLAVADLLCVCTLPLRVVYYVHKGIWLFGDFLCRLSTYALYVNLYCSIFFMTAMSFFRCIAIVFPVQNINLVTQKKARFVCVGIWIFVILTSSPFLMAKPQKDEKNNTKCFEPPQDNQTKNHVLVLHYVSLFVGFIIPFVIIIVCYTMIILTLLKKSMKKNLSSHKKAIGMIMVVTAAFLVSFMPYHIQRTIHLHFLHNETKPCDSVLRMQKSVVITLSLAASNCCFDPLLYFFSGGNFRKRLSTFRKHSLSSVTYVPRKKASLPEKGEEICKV

[3] = target: Tyrosine-protein kinase Lck (Homo sapiens, UniProt P06239); assay: DRUGMATRIX: Protein Tyrosine Kinase, LCK enzyme inhibition (substrate: Poly(Glu:Tyr)); assay type: cell-based, Insect cells; conditions: insect cells; Not Active = under 50% inhibition at 10 µM
Chain of Tyrosine-protein kinase Lck (P06239 whole entry): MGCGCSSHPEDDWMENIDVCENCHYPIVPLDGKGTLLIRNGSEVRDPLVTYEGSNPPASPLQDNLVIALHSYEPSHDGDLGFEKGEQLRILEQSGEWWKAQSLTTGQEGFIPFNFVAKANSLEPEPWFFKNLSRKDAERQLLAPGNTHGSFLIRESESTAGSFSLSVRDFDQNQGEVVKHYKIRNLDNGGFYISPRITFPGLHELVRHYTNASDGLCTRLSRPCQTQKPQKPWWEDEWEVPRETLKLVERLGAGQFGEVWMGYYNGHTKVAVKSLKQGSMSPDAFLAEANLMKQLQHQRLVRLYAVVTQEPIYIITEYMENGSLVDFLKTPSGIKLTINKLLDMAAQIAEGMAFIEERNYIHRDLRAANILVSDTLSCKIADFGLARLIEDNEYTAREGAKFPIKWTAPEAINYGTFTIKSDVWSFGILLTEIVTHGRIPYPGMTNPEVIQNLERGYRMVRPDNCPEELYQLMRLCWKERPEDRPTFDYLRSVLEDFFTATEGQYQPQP

[4] = target: Platelet-activating factor receptor (Homo sapiens, UniProt P25105); assay type: tissue-based; note: in other assays of this panel Not Active means under 50% inhibition at 10 µM
Chain of Platelet-activating factor receptor (P25105 whole entry): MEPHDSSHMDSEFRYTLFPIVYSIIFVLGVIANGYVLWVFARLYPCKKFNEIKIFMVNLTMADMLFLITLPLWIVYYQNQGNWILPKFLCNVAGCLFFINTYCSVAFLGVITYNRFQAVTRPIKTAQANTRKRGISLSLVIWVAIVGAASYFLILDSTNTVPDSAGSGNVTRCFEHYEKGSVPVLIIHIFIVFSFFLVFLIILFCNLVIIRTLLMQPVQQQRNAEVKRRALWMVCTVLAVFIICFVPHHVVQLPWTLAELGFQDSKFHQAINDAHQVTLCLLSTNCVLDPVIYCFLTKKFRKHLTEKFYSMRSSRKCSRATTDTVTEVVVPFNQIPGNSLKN

[5] = target: Delta-type opioid receptor (Homo sapiens, UniProt P41143); assay type: cell membranes, Membrane; conditions: hek293; note: in other assays of this panel Not Active means under 50% inhibition at 10 µM
Chain of Delta-type opioid receptor (P41143 whole entry): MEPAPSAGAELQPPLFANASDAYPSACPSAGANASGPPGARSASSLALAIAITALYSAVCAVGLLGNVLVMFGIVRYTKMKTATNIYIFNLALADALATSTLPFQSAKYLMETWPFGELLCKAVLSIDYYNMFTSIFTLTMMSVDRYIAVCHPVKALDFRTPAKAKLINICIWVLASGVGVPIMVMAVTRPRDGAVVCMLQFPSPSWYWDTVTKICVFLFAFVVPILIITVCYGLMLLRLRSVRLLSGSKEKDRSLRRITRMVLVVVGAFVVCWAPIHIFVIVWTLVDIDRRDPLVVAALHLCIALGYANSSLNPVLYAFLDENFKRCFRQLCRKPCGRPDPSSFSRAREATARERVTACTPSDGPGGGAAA

[6] = DRUGMATRIX: GABAA, Muscimol, Central radioligand binding (ligand: [3H] Muscimol); assay type: cell membranes, Rattus norvegicus, Wistar, Brain, Membrane; conditions: Not Active = under 50% inhibition at 10 µM
[7] = target: D(1A) dopamine receptor (Homo sapiens, UniProt P21728); assay: DRUGMATRIX: Dopamine D1 radioligand binding (ligand: [3H] SCH-23390); assay type: cell membranes, CHO, Membrane; conditions: cho; Not Active = under 50% inhibition at 10 µM
Chain of D(1A) dopamine receptor (P21728 whole entry): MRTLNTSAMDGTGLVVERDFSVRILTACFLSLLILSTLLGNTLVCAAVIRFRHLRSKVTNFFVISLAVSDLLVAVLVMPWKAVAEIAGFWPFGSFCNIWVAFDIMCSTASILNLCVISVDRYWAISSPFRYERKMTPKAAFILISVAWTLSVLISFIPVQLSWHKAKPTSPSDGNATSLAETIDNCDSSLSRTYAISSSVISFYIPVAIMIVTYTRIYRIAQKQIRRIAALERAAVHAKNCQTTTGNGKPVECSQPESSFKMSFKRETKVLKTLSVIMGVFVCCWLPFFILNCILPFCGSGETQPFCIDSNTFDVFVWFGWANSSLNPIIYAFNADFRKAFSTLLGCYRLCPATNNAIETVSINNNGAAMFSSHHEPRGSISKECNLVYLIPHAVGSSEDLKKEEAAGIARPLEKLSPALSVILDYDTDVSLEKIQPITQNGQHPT

CC(C)NCC(O)c1ccc(NS(C)(=O)=O)cc1 (configuration not stated) [SOTALOL]
Not Active: IC50 [1] | Ki [1] | IC50 [2] | IC50 [3] | IC50 [4] | IC50 [5] | IC50 [6] | Ki [6] | IC50 [7]

MANGANESE CHLORIDE ANHYDROUS
Not Active: IC50 [1] | Ki [1] | IC50 [2] | Ki [2] | IC50 [3] | Ki [3] | IC50 [4] | Ki [4] | IC50 [5] | Ki [5] | IC50 [6] | Ki [6] | IC50 [7] | Ki [7]

O.O.O.O.O.O.[Cl-].[Cl-].[Sr+2] [STRONTIUM CHLORIDE HEXAHYDRATE]
Not Active: IC50 [1] | Ki [1] | IC50 [2] | IC50 [3] | IC50 [4] | IC50 [5] | IC50 [6] | Ki [6] | IC50 [7]

Nc1cc(N2CCCCC2)nc(N)[n+]1[O-] [MINOXIDIL]
Not Active: IC50 [1] | Ki [1] | IC50 [2] | IC50 [3] | IC50 [4] | IC50 [5] | IC50 [6] | Ki [6] | IC50 [7]

CO[C@H]1/C=C/O[C@@]2(C)Oc3c(C)c(O)c4c(O)c(c(/C=N/N5CCN(C6CCCC6)CC5)c(O)c4c3C2=O)NC(=O)/C(C)=C\C=C\[C@H](C)[C@H](O)[C@@H](C)[C@@H](O)[C@@H](C)[C@H](OC(C)=O)[C@@H]1C [RIFAPENTINE]
Not Active: IC50 [1] | Ki [1] | IC50 [2] | IC50 [3] | IC50 [4] | IC50 [5] | IC50 [6] | Ki [6] | IC50 [7]

Cc1cccc(C)c1OCC(C)N (configuration not stated) [MEXILETINE]
Not Active: IC50 [1] | Ki [1] | IC50 [2] | IC50 [3] | IC50 [4] | IC50 [5] | IC50 [6] | Ki [6] | IC50 [7]

COc1c2occc2cc2ccc(=O)oc12 [METHOXSALEN]
Not Active: IC50 [1] | Ki [1] | IC50 [2] | IC50 [3] | IC50 [4] | IC50 [5] | IC50 [6] | Ki [6] | IC50 [7]

C[C@H]1C[C@@H]2[C@H]([C@@H](O)C[C@@]3(C)[C@H]2CC[C@]3(O)C(=O)CO)[C@@]2(C)C=CC(=O)C=C12 [METHYLPREDNISOLONE]
Not Active: IC50 [1] | Ki [1] | IC50 [2] | IC50 [3] | IC50 [4] | IC50 [5] | IC50 [6] | Ki [6] | IC50 [7]
